Laboratory results: patent US4239778A, “Azaprostanoic acid analogs and their use as inhibitors of platelet aggregation” (priority 1978, dated 1980)
“Also recorded” adds a separate entry of the source. Where two headings read alike, the source gives them in different places.

What was measured:
[1] = test system: prostacyclin synthetase; conditions: cited from earlier work
[2] = test system: platelet aggregation; conditions: cited from earlier work
[3] = test system: cyclooxygenase; conditions: cited from earlier work
[4] = test system: PGE2; conditions: cited from earlier work
[5] = test system: thromboxane synthetase; conditions: cited from earlier work
[6] = test system: platelet conversion of AA to thromboxane B2 (TXB2); experiment: TXB2 formation in platelet rich plasma aggregated with arachidonic acid (radioimmunoassay); assay type: cell-based
Experimental: (§1) Platelet rich plasma was aggregated with 500 μM arachidonic acid and three minutes following arachidonate addition, aliquots of the plasma were drawn for TXB2 determinations.

[7] = test system: platelet cAMP levels; conditions: cited from earlier work
[8] = test system: thromboxane synthetase; experiment: TXB2 formation in response to added PGH2 in indomethacin-treated resuspended platelets (thromboxane synthetase); assay type: cell-based
Experimental: This possibility was examined by measuring the effect of 13-APA on TXB2 formation in response to added PGH2 (0.13 μg/ml). Platelets were isolated from EDTA-treated ([…]) PRP by centrifugation at 800 xg for 15 minutes. The platelet pellet was resuspended by gentle swirling in calcium-free Tyrode buffer (pH 7.4). […] Moreover, if it is assumed that TXA2 is the final mediator involved in prostaglandin activation, 13-APA must act to block the interaction of TXA2 with the platelet receptor.

[9] = test system: platelets; experiment: PGH2-induced platelet aggregation (Table V); assay type: cell-based
[10] = test system: platelet rich plasma; experiment: Platelet aggregation with 500 μM arachidonic acid (Table IV); assay type: cell-based
Experimental: as §1

[11] = test system: Swiss Webster mice; assay type: in vivo, mouse; conditions: 30 mg/kg i.p.
Experimental: (§2) Swiss Webster mice (25 gm) maintained on a Purina diet were injected intraperitoneally with either 0.1 ml corn oil or 0.1 ml corn oil containing 13-azaprostanoic acid (13-APA) of Example 5. The dose of 13-APA employed was 30 mg/kg. One hour subsequent to injection, 0.05 ml of a sodium arachidonate solution was administered by rapid I.V. through the tail vein to both control and drug-treated mice. The arachidonate was dissolved in 90% saline and 10% ethanol (95%).

[12] = test system: mice; experiment: Observation of mice after 30 mg/kg 13-APA; assay type: in vivo, mouse; conditions: months after dose
Experimental: as §2

[13] = test system: platelet receptor; experiment: Platelet aggregation induced by direct agonist 9-epoxy CEE; assay type: cell-based; conditions: 3 μM 9-epoxy CEE
Description: Such inhibitory activity has not been previously reported for any compound which selectively blocks AA-induced aggregation.

[14] = in vivo; cited from earlier work
[15] = AA 500 μM + imidazole 100 μg/ml
[16] = AA 500 μM + imidazole 200 μg/ml
[17] = 1 h before I.V. arachidonate (100 mg/kg), number of mice of 4

SMILES: CCCCCC/C=C/C1C2CC(N=N2)C1C/C=C\CCCC(=O)O (centres unmarked) [azo prostanoic acid analog]
- inhibition of prostacyclin synthetase (in words) [1]: inhibitory activity may also extend to prostacyclin synthetase
- effect on platelet aggregation (in words) [2]: inhibitor of platelet aggregation induced by PGH2, arachidonic acid, or collagen, and of the second wave of ADP or epinephrine-induced aggregation
- effect on platelet aggregation (in words) ([2]; listed as azo analog): suppressed the attendant aggregation induced by arachidonate in a parallel, concentration-dependent fashion
- inhibition of prostaglandin biosynthesis / cyclooxygenase (in words) [3]: cyclooxygenase enzyme was not affected
- PGE2 formation (in words) [4]: increase in PGE2
- inhibition of thromboxane synthetase (in words) [5]: potent inhibitor of thromboxane synthetase
- inhibition of thromboxane synthetase (in words) ([5]; listed as azo analog): competitive inhibitor of PGH2 binding to the thromboxane synthetase enzyme; also recorded: selectively inhibit thromboxane synthetase in a concentration dependent fashion

SMILES: c1c[nH]cn1 [imidazole]
- TXB2 ([6]; AA 500 μM + imidazole 20 μg/ml): 669 ± 33 ng/mL
- TXB2 [6, 15]: 264 ± 7 ng/mL
- TXB2 [6, 16]: 138 ± 8 ng/mL
- TXB2 formation (in words) ([6]; imidazole 200 μg/ml): substantial depression of TXB2 formation
- TXB2 levels versus control (in words) ([6]; imidazole decreased from 200 μg/ml to 20 μg/ml): significantly lower than control
- changes in platelet cAMP levels (in words) [7]: without inducing changes in platelet cAMP levels
- effect on platelet aggregation (in words) [2]: erratic; also recorded: potentiate aggregation in washed platelets
- TXB2 ([8]; PGH2 […] + imidazole 20 μg/ml): 26 ± 1 ng/mL
- TXB2 ([8]; PGH2 […] + imidazole 100 μg/ml): 6 ± 1 ng/mL
- TXB2 ([8]; PGH2 […] + imidazole 200 μg/ml): 3 ± 1 ng/mL
- thromboxane synthetase inhibition (in words) ([8]; imidazole 20-200 μg/ml): blocks thromboxane synthetase in a dose dependent manner
- concentration necessary to achieve inhibition of thromboxane synthetase [5]: 2 mM
- inhibition of thromboxane synthetase (in words) [5]: selectively inhibit thromboxane synthetase in a concentration dependent fashion
- inhibition of thromboxane synthetase (in words) ([5]; listed as Imidazole): selectively inhibits thromboxane synthetase
- % Aggregation ([9]; PGH2 […] + imidazole 20 μg/ml): 30%
- % Aggregation ([9]; PGH2 […] + imidazole 100 μg/ml): 50%
- % Aggregation ([9]; PGH2 […] + imidazole 200 μg/ml): 60%
- % Aggregation ([10]; AA 500 μM + imidazole 20 μg/ml): 21%
- % Aggregation [10, 15]: 11%
- % Aggregation [10, 16]: 5%
- inhibition at 20 µg/mL ([10]; Platelet, read-out: inhibition of aggregation): ~75%

SMILES: CCCCCCCN[C@H]1CCC[C@@H]1CCCCCCC(=O)O [Example 13-APA, 13-azaprostanoic acid]
- TXB2 ([6]; AA 500 μM + 13-APA 10 μM): 1164 ± 25 ng/mL
- TXB2 ([6]; AA 500 μM + 13-APA 50 μM): 750 ± 19 ng/mL
- inhibition at 50 µM ([6]; Platelet, 0.05 h, 13-APA 50 μM, read-out: decrease of TXB2 formation): 36%
- platelet production of TXB2 (in words) ([8]; 13-APA 100 μM): no effect on platelet production of TXB2
- TXB2 ([8]; PGH2 […] + 13-APA 10 μM): 50 ± 2 ng/mL
- TXB2 ([8]; PGH2 […] + 13-APA 50 μM): 44 ± 2 ng/mL
- TXB2 ([8]; PGH2 […] + 13-APA 100 μM): 40 ± 2 ng/mL
- Death [11, 17]: 0
- Severe Respiratory Distress [11, 17]: 0
- symptoms of thromboembolism (in words) ([11]; arachidonate 100 mg/kg I.V.): none of the symptoms of thromboembolism
- ill effects / toxicity (in words) [12]: no ill effects are evident
- inhibition of aggregation induced by 9-epoxy CEE (in words) ([13]; 13-APA 100 μM): completely inhibited
- inhibition at 10 µM ([13]; Platelet, 13-APA 10 μM): ~60%
- inhibition of PGH2-induced aggregation (in words) ([9]; 13-APA 10 μM): completely effective in inhibiting PGH2 -induced aggregation
- % Aggregation ([9]; PGH2 […] + 13-APA 10 μM): 0%
- % Aggregation ([9]; PGH2 […] + 13-APA 50 μM): 0%
- % Aggregation ([9]; PGH2 […] + 13-APA 100 μM): 0%
- inhibition of aggregation (in words) ([10]; 13-APA 50 μM): completely inhibits aggregation
- % Aggregation ([10]; AA 500 μM + 13-APA 10 μM): 80%
- % Aggregation ([10]; AA 500 μM + 13-APA 50 μM): 0%

SMILES: CC(=O)Oc1ccccc1C(=O)O [aspirin]
- inhibition of prostaglandin biosynthesis / cyclooxygenase (in words) [3]: inhibit prostaglandin biosynthesis by blocking the conversion of substrate fatty acids to endoperoxides
- bleeding times (in words) [14]: prolong bleeding times
